In publication PMC7804942, “The amphibian peptide Yodha is virucidal for Zika and dengue viruses” (Scientific Reports, 2021):
Like-named read-outs stand apart in the source and are kept apart here. Where a SMILES comes first, the peptide text is derived from it.

Experiments:
[1] = tested on: ZIKV; assay: Transmission electron microscopy of peptide-treated ZIKV; set-up: species or system Zika virus; conditions: 200 µM peptide, 10 min, negative staining TEM
Description: To test this, we treated ZIKV with Yodha peptide or control peptide for 10 min and analyzed virus particles by electron microscopy.
(A) TEM micrographs of ZIKV treated with OVA (control) or Yodha peptide are shown. ZIKV were incubated with the peptides at 200 µM for just 10 min, fixed with paraformaldehyde and then processed for electron microscopy. Yodha treatment led to loss of morphology and aggregation of virus particles. (B) Enlarged images of ZIKV treated with control or Yodha peptide from (A) are shown. The data is representative of three experiments performed.
ZIKV samples were fixed with 4% buffered paraformaldehyde before negative staining. 5 µl of Zika sample was then deposited onto a 400-mesh carbon-coated copper grid that had been treated by glow-discharged for 20 s and allowed 5 min for the sample to settle in a covered glass dish. The grids with samples were then quickly washed by touching the sample side on two drops double distilled water, wick with filter paper, and then stained with 1% phosphotungstic acid (PTA) for 15 s before removing PTA with filter paper. Zika virus was imaged on a JEOL JEM-1400 transmission electron microscope (JEOL Ltd., Tokyo, Japan) equipped with a Gatan US1000 CCD camera (Gatan, Pleasanton, CA).

[2] = tested on: DENV3; conditions: FFA
Description: Dengue virus strains 1, 2, 3 and 4 were treated with wither Yodha or control OVA peptide at (A) 50 µM (B) 160 µM concentration and the % of viral focus forming units were determined. (C) IC50 measurement of Yodha in DENVs infection by FFA. […] OVA peptide was used a negative control.
(§1) Peptides were incubated with ZIKV (100 FFU/well) for 2 h at 37 °C. This incubated mixture was used to infect Vero cells for 1.5 h at 37 °C. Cells and inoculum were overlaid with 2% methylcellulose solution (OptiMEM; Gibco) and incubated for 72 h at 37 °C. Cells were washed with PBS and fixed with a 1:1 methanol/acetone mixture for 30 min. Cells were blocked with 5% milk/PSB at room temperature for 20 min and incubated with primary antibody (anti-flavivirus mouse 4G2[10] antibody) for 2 h at 37 °C. Then, cells were incubated with secondary antibody (HRP-conjugated goat anti-mouse IgG, Cell Signaling) for 1 h at 37 °C. Cells were developed with TrueBlue Peroxidase Substrate (KPL). Plates were read on a CTL-ImmunoSpot S6 Micro analyzer.

[3] = tested on: ZIKV; assay: ZIKV entry into Vero cells, viral RNA by qRT-PCR; type: cell-based, Zika virus; conditions: ZIKV treated with 200 µM peptide for 30 min, MOI 0.5, 30 min infection, qRT-PCR normalised to GAPDH
Description: Next, we determined whether the observed Yodha peptide-induced decrease in viral titers was due to blocked viral entry. We reasoned that if the peptide directly kills or disrupts the envelope structure of ZIKV, this would prevent virus entry. To test this, we designed an experiment to measure virus entry, by allowing ZIKV to bind cells at 4 °C for 1 h followed by shifting the cells to 37 °C to permit virus entry (Fig. 2A). It has been shown that DENV2 entry occurs within 25 min by early endosome trafficking. Briefly, we exposed ZIKV to Yodha peptide and then allowed the virus to infect Vero cells for 30 min. We then measured viral RNA within the Vero cells by quantitative Real Time-PCR (qRT-PCR) (Fig. 2B). […] Next, we visualized ZIKV entry or lack thereof by immunofluorescence using antibodies against pan flavivirus E protein. […] We collected culture supernatants at 3, 24, 48, and 72 h after ZIKV infection to quantitate ZIKV by FFU assay (Fig. 2E). ZIKV was not detected at 3 h post-infection in both OVA- or Yodha-treated cells. […]
Figure 2 Yodha peptide inhibits ZIKV entry into cells. […] (B) ZIKV was treated with 200 µM of Yodha or control OVA peptide for 30 min and then used to infect Vero cells at a MOI of 0.5 and expression of ZIKV RNA was determined by quantitative RT-PCR (qRT-PCR). […] Error bars indicate the SEM of four technical replicates statistical significance was assessed by a 2-way ANOVA. […]

[4] = tested on: ZIKV; assay: ZIKV neutralisation by mutant, enantiomer and variant peptides (strain not stated); type: cell-based, Zika virus
Description: To further characterize Yodha peptide, we generated alanine-scanning mutants of the peptide, which removes the side chain, but maintains peptide conformation, allowing for the assessment of the significance of each amino acid within the larger structure (Fig. 4A). Each of 23 mutated peptides was tested for its (a) ability to neutralize ZIKV (Fig. 4B) and (b) toxicity against human RBC, if any (Fig. 4C).
So next, we sought to determine how common this peptide or its analogs are in host defense peptides isolated from elsewhere in the world. […] We then determined the extent to which any of these variant peptides can neutralize ZIKV. […] We also generated a series of mutant Yodha peptides, including one which lacks the C terminal DDQERC, a short 12 peptide fragment that lacks the EEERGA from variant #12, and a S1P peptide that replace S1-P in the full-length Yodha (Fig. 5D) and tested their activity against ZIKV (Fig. 5D).
as §1

## CC[C@H](C)[C@H](NC(=O)[C@@H](NC(=O)CNC(=O)[C@H](CC(C)C)NC(=O)[C@H](Cc1ccccc1)NC(=O)[C@H](Cc1ccccc1)NC(=O)[C@H](CC(C)C)NC(=O)[C@H](CC(C)C)NC(=O)[C@H](CC(C)C)NC(=O)[C@H](CCSC)NC(=O)[C@@H](N)CO)[C@@H](C)O)C(=O)N[C@@H](CO)C(=O)N[C@@H](CC(C)C)C(=O)N[C@@H](CO)C(=O)N[C@@H](CC(C)C)C(=O)N[C@@H](CS)C(=O)N[C@@H](CCC(N)=O)C(=O)N[C@@H](CC(=O)O)C(=O)N[C@@H](CC(=O)O)C(=O)N[C@@H](CCC(N)=O)C(=O)N[C@@H](CCC(=O)O)C(=O)N[C@@H](CCCNC(=N)N)C(=O)N[C@@H](CS)C(=O)O [Yodha] (H-SMLLLFFLGTISLSLCQDDQERC-OH; N-terminus and C-terminus assumed)
[1]
  virus particle integrity by electron microscopy: disruption of viral particles
[2]; 50 µM peptide
  inhibition of DENV3: not DENV3
[2]; 160 µM peptide
  inhibition of DENV3: very efficient
[3]
  ZIKV RNA expressed compared to the OVA and virus-only controls: 20%
[4]
  anti-viral activity against ZIKV, D- versus L-enantiomer: comparable anti-viral activity
